Article PMC1977928, “Chlorambucil-monoglutathionyl conjugate is sequestered by human alpha class glutathione S-transferases” (British Journal of Cancer, 1992)

Tests used:
Assay type in all cases: biochemical
[1] = target: T1, GST P1-1 (Homo sapiens, UniProt P09211); assay: inhibition of CDNB conjugation activity
T1 construct: gene GSTP1; homodimer purified from human kidney cytosol

[2] = target: T2, GST M1a-1a (Homo sapiens, UniProt P09488); assay: inhibition of CDNB conjugation activity
T2 construct: gene GSTM1; homodimer purified from human liver cytosol
T2 sequence (P09488 2-218): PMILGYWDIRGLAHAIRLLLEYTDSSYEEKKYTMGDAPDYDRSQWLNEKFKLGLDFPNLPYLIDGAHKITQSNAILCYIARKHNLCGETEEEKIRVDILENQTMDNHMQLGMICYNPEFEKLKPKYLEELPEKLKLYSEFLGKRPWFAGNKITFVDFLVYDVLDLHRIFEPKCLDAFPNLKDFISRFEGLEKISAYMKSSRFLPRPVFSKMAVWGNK

[3] = target: T3, GST A1-1 (Homo sapiens, UniProt P08263); assay: inhibition of CDNB conjugation activity (Dixon and Hanes plots)
T3 construct: gene GSTA1; homodimer purified from human liver cytosol
T3 sequence (P08263 2-222): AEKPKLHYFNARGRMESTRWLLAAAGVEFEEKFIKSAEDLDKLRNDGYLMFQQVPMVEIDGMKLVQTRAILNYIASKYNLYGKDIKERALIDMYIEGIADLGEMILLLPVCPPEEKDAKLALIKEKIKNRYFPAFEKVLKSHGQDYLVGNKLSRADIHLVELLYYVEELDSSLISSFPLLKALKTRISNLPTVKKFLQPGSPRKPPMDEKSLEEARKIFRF
From the text: inhibition of CDNB conjugation activity (Dixon and Hanes plots) on GST A1-1 | CHBSG was a pure competitive inhibitor of the activity of GSTs A1-1 and A2-2 towards 1-chloro-2,4-dinitrobenzene

[4] = target: T4, GST A2-2 (Homo sapiens, UniProt P09210); assay: as above
T4 construct: gene GSTA2; homodimer purified from human liver cytosol
T4 sequence (P09210 2-222): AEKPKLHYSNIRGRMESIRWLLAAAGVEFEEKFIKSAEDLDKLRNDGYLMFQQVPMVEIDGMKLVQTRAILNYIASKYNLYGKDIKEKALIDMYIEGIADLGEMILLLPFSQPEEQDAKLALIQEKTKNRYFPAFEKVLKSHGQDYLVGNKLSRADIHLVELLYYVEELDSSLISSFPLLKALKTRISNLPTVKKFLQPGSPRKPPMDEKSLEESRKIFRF

T1 sequence (P09211 2-210): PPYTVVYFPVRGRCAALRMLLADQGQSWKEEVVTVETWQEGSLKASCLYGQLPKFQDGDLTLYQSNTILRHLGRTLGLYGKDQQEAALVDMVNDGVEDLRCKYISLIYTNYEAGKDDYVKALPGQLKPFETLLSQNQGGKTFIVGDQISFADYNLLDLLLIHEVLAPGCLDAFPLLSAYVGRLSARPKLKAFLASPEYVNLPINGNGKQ

`N[C@@H](CCC(=O)N[C@@H](CSCCN(CCCl)c1ccc(CCCC(=O)O)cc1)C(=O)NCC(=O)O)C(=O)O` [CHBSG] was tested, and the “inhibition of CDNB conjugation activity” value [1] was > 10 µM, the “inhibition of CDNB conjugation activity” value [2] was > 10 µM and the Ki [3] was 1.3 µM. It also gave a Ki [4] of 1.2 µM.
